According to patent US20220211704A1, “INHIBITORS OF HUMAN IMMUNODEFICIENCY VIRUS REPLICATION” (VIIV HEALTHCARE UK (No. 5) LIMITED, priority 2019, published 2022):

Tests used:
[1] = Compound cytotoxicity, XTT-based colorimetric assay; assay type: cell-based; settings: human; uninfected MT2 cells, day 4, XTT
Protocol: Compound cytotoxicity and the corresponding CC50 values were determined using the same protocol as described in the antiviral assay except that uninfected cells were used. Cytotoxicity was assessed on day 4 in uninfected MT2 cells by using an XTT (2,3-bis[2-Methoxy-4-nitro-5-sulfophenyl]-2H-tetrazolium-5-carboxyanilide inner salt)-based colorimetric assay (Sigma-Aldrich, St Louis, Mo.).

recombinant NL4-3 virus = assay: HIV cell culture assay (Renilla luciferase reporter virus in MT-2 cells); assay type: cell-based; settings: Human immunodeficiency virus 1, NL43, MT2
Protocol: HIV cell culture assay—MT-2 cells, 293T cells and the proviral DNA clone of NL4-3 virus were obtained from the NIH AIDS Research and Reference Reagent Program. MT-2 cells were propagated in RPMI 1640 media supplemented with 10% heat inactivated fetal bovine serum (FBS), […]. The 293T cells were propagated in DMEM media supplemented with 10% heat inactivated FBS, […]. A recombinant NL4-3 proviral clone, in which a section of the nef gene was replaced with the Renilla luciferase gene, was used to make the reference virus used in these studies. The recombinant virus was prepared through transfection of the recombinant NL4-3 proviral clone into 293T cells using Transit-293 Transfection Reagent from Mirus Bio LLC (Madison, Wis.). Supernatent was harvested after 2-3 days and the amount of virus present was titered in MT-2 cells using luciferase enzyme activity as a marker by measuring luciferase enzyme activity. Luciferase was quantitated using the EnduRen Live Cell Substrate from Promega (Madison, Wis.). Antiviral activities of compounds toward the recombinant virus were quantified by measuring luciferase activity in MT-2 cells infected for 4-5 days with the recombinant virus in the presence of serial dilutions of the compound. […]

SMILES | CC50 at 4 day [1] [nM] | EC50 (recombinant NL4-3 virus) [nM]
CC(C)(C#Cc1ccc2c(=O)n(-c3ccc(Cl)c4c(NS(=O)(=O)C5CC5)nn(CC(F)F)c34)c([C@H](Cc3cc(F)cc(F)c3)NC(=O)Cn3nc(C(F)F)c4c3C(F)(F)C3CC43)nc2c1)S(C)(=O)=O (stereo in doubt) [Example 2, N—((S)-1-(3-(4-chloro-3-(cyclopropanesulfonamido)-1-(2,2-difluoroethyl)-1H-indazol-7-yl)-7-(3-methyl-3-(methylsulfonyl)but-1-yn-1-yl)-4-oxo-3,4-dihydroquinazolin-2-yl)-2-(3,5-difluorophenyl)ethyl)-2-((3bS,4aR)-3-(difluoromethyl)-5,5-difluoro-3b,4,4a,5-tetrahydro-1H-cyclopropa[3,4]cyclopenta[1,2-c]pyrazol-1-yl)acetamide] | > 500 | 0.047
Cn1nc(NS(C)(=O)=O)c2c(Cl)ccc(-n3c([C@H](Cc4cc(F)cc(F)c4)NC(=O)Cn4nc(C(F)F)c5c4C(F)(F)C4CC54)nc4cc(C#CC(C)(C)S(C)(=O)=O)ccc4c3=O)c21 (stereo in doubt) [Example 1, N—((S)-1-(3-(4-chloro-1-methyl-3-(methylsulfonamido)-1H-indazol-7-yl)-7-(3-methyl-3-(methylsulfonyl)but-1-yn-1-yl)-4-oxo-3,4-dihydroquinazolin-2-yl)-2-(3,5-difluorophenyl)ethyl)-2-((3bS,4aR)-3-(difluoromethyl)-5,5-difluoro-3b,4,4a,5-tetrahydro-1H-cyclopropa[3,4]cyclopenta[1,2-c]pyrazol-1-yl)acetamide] | > 500 | 0.035
